US12053523B2, “Compositions comprising chemotherapeutic agents and checkpoint inhibitors and methods of use” (NORTH CAROLINA STATE UNIVERSITY, priority 2017, dated 2024)
Entries after “also recorded” stand apart in the source; their conditions may differ. Structures can show the parent of a compound that is named as a salt.

Columns and labels:
[1] = GEM and aPDL1 release from PVA-TSPBA hydrogels; assay type: physicochemical; conditions: 37° C.
Experimental: FIGS. 1A, 1B, 1C, 1D, 1E, and 1F show a schematic and characterization of in situ formed reactive oxygen species (ROS)-responsive PVA-TSPBA scaffold. […] Scale bar, 0.5 μm. Inset: a zoom-in image of the scaffold. Scale bar, 0.1 μm. […] Scale bar, 25 μm. […] FIGS. 1E and IF show cumulative release profiles of GEM (1e) and aPDL1 (1f) from hydrogels when incubated with PBS with or without H2O2 (1 mM).
The TSPBA can be oxidized and hydrolyzed when exposed to H2O2 in the TME, leading to the dissociation of the polymeric scaffold and the release of PVA and payloads. To verify the ROS-sensitive degradability of the hydrogels, samples were immersed in phosphate-buffered saline (PBS) containing […] H2O2 at 37° C. […] The release profiles of GEM and aPD-L1 were quantified using high-performance liquid chromatography (HPLC) and enzyme-linked immunosorbent assay (ELISA), respectively. […] The release pattern was further examined in vivo after the intratumor injection of the drug-loaded scaffolds in the B16F10 mouse model. […] These distinct release dynamics facilitated the delivery of GEM and aPD-L1 into the TME for the intended sequential effects.
Release studies were performed at 37° C. with constant agitation in PBS. […] The released GEM was analyzed by HPLC and the antibody release was determined by Rat IgG total ELISA kit (eBioscience).

[2] = system: B16F10 cancer cells; assay: Treatment of B16F10 cancer cells in vitro with GEM (flow cytometry, immunofluorescence, western blot); assay type: cell-based, mouse
Experimental: FIGS. 7A and 7B show the effects of GEM to cancer cells in vitro.
Circulating type 1 T helper (Th1) cytokines were also measured before and after GEM@Gel implantation (FIG. 6g).
(§1) The mouse melanoma cell line B16F10 and mouse mammary carcinoma cell line 4T1 were purchased from the American Type Culture Collection. B16F10-luc-GFP and 4T1-luc-GFP cells were gifts from Dr. Leaf Huang at the University of North Carolina at Chapel Hill. B16F10 cells were maintained in Dulbecco's Modified Eagle Medium (Gibco, Invitrogen) supplemented with 10% fetal bovine serum (Invitrogen, Carlsbad, CA), 100 U/mL penicillin (Invitrogen), and 100 […] (Invitrogen). 4T1 cells were maintained in RPMI-1640 Medium (Gibco, Invitrogen) supplemented with 10% fetal bovine serum (Invitrogen, Carlsbad, CA), 100 U/mL penicillin (Invitrogen), and 100 […] (Invitrogen). Master and working cell banks were generated immediately upon receipt. The third and fourth passages were used for the experiments. Cells were tested every three months to exclude the presence of mycoplasma. Authentication of cells was not performed after receipt.

[3] = system: 4T1 cancer cells; assay: Effects of GEM in 4T1 cells in vitro (PD-L1 by flow cytometry); assay type: cell-based, mouse; conditions: GEM 0, 1, 2, 5, 10 μM for 48 hours, remaining live cells; hydrochloride
Experimental: The data are shown as mean±SD. Error bars are based on at least triplicate measurements. P value: *, P<0.05.
4T1 cells were reported to express low levels of PD-L1. […] For in vivo study, 4T1 were inoculated subcutaneously into the right flank of female BABL/c mice. After 7 days, the mice bearing 4T1 tumors were treated with GEM@Gel (200 μL, 10% w/w) (GEM: 5 mg/kg), aPD-L1@Gel (aPDL1: 50 μg per mouse) or GEM-aPD-L1@Gel (aPD-L1: 50 μg per mouse, GEM: 5 mg/kg).
as §1, with “Authentication of cells was not performed after receipt.” left out

- Release from the hydrogel in H2O2 solution compared to control PBS ([1]; H2O2 1 mM vs PBS): in a triggered manner
Structure (SMILES): Nc1ccn([C@@H]2O[C@H](CO)[C@@H](O)C2(F)F)c(=O)n1 [GEM, Gemcitabine hydrochloride]
- Release of GEM from the hydrogel ([1]; H2O2 solution (1 mM) in PBS, HPLC): great majority of GEM was released within one day
- PD-L1 on surviving B16F10 cells ([2]; GEM 5 μM, within 24 hours): significant PD-L1 upregulation
- Dose and time dependence of PD-L1 expression on B16F10 cancer cells ([2]; flow cytometry, immunofluorescence, western blot): GEM-dose- and time-dependent
- Cell death of B16F10 cancer cells ([2]; in vitro): resulted in cell death
- Expression of PD-L1 in surviving B16F10 cells ([2]; in vitro): increased expression of PD-L1
- PD-L1 expression in 4T1 cancer cells [3]: induced PD-L1 expression; also recorded: PD-L1 upregulation
